# Key:
# Test in all cases: Glycosidase inhibition, Table 6 (Laboratory 1)
# Type in all cases: biochemical
# [1] = biological target: T1, α-D-glucosidase (from yeast) (Saccharomyces cerevisiae, UniProt P53341)
# T1 construct: purchased Sigma-Aldrich Co
# From the text: (§1) The enzymes α-D-glucosidase (from yeast), β-D-glucosidases (from almond and bovine liver), α-D-galactosidase (from coffee beans), β-D-galactosidase (from bovine liver), α-D-mannosidase (from Jack bean), β-D-mannosidase (from snail), α-L-rhamnosidase (from Penicillium decumbens), α-L-fucosidase (from bovine kidney), trehalase (from porcine kidney), β-D-glucuronidases (from E. coli and bovine liver), amyloglucosidase (from A. niger), para-nitrophenyl glycosides, and various disaccharides were purchased from Sigma-Aldrich Co. (St. Louis, MO, USA).
# (§2) Brush border membranes were prepared from the rat small intestine according to the method of Kessler et al., and were assayed at pH 6.8 for rat intestinal maltase using maltose. For rat intestinal maltase, porcine kidney trehalase, and A. niger amyloglucosidase activities, the reaction mixture contained maltose (25 mM) and the appropriate amount of enzyme, and the incubations were performed for 10–30 min at 37 °C. The reaction was stopped by heating at 100 °C for 3 min. After centrifugation (600× g; 10 min), the resulting reaction mixture was added to the Glucose CII-test Wako (Wako Pure Chemical Ind., Osaka, Japan). The absorbance at 505 nm was measured to determine the amount of the released D-glucose. Other glycosidase activities were determined using an appropriate para-nitrophenyl glycoside as substrate at the optimum pH of each enzyme. The reaction mixture contained the substrate (2 mM) and the appropriate amount of enzyme. The reaction was stopped by the addition of Na2CO3 (400 mM). The released para-nitrophenol was measured spectrometrically at 400 nm. All reactions run in methanol.
# [2] = system: α-D-glucosidase (rat intestinal maltase)
# From the text: as §1, §2
# [3] = system: α-L-rhamnosidase (from Penicillium decumbens)
# From the text: as §1, §2
# [4] = biological target: T2, β-D-galactosidase (bovine liver) (Bos taurus, UniProt Q58D55)
# T2 sequence (Q58D55 28-653): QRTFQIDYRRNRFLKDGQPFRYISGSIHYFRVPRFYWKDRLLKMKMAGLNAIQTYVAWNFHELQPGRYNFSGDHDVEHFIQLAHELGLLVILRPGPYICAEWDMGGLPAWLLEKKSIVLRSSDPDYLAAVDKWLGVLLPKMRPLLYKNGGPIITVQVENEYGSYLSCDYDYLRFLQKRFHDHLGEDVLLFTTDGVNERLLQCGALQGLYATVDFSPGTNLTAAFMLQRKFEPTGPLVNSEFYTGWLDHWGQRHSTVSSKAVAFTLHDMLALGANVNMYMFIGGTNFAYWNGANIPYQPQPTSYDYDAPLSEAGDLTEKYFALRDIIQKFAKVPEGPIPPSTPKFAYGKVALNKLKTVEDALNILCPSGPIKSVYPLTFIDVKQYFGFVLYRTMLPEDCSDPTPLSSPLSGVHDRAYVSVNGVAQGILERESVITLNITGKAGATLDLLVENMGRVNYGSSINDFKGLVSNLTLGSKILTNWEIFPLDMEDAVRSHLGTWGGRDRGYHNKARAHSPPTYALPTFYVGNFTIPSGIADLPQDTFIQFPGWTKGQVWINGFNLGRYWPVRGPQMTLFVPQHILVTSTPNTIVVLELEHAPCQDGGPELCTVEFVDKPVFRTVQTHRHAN
# From the text: as §1, §2
# β-D-glucosidase (almond) = system: β-D-glucosidase (almond)
# From the text: as §1, §2
# [5] = system: β-D-glucosidase (bovine liver)
# From the text: as §1, §2
# [6] = system: β-D-glucuronidase (bovine liver)
# From the text: as §1, §2
# [7] = biological target: T3, amyloglucosidase (from A. niger) (Aspergillus niger, UniProt P69328)
# T3 construct: purchased Sigma-Aldrich Co
# T3 sequence (P69328 25-640): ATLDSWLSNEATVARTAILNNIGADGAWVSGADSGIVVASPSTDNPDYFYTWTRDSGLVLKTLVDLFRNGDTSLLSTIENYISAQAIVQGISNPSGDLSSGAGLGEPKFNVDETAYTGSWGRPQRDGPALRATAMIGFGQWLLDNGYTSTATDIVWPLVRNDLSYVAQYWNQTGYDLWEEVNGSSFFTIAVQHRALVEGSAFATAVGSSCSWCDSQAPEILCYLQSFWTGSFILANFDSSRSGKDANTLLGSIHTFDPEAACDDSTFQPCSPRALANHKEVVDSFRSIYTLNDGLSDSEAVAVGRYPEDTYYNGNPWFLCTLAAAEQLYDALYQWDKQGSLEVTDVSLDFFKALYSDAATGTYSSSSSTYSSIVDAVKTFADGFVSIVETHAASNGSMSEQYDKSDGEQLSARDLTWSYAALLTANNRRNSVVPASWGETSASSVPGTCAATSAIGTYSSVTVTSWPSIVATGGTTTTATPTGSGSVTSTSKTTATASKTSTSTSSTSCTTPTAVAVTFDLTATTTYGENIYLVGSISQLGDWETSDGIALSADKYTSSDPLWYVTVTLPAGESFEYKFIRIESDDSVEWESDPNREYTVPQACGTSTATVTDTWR
# From the text: as §1, §2
# [8] = biological target: T4, α-D-galactosidase (from coffee beans) (Coffea arabica, UniProt Q42656)
# T4 construct: purchased Sigma-Aldrich Co
# T4 sequence (Q42656 16-378): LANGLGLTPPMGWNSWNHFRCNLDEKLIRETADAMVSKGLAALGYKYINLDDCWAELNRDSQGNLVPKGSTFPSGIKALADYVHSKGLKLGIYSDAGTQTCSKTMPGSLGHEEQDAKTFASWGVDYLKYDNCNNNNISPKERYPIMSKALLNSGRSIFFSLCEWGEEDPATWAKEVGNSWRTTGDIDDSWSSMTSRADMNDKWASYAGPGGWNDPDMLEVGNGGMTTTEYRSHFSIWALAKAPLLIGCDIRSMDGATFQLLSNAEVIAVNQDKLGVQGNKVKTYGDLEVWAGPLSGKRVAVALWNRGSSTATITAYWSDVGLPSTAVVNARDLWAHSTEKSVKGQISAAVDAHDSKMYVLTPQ
# From the text: as §1, §2
# [9] = biological target: T5, α-D-mannosidase (from Jack bean) (Canavalia ensiformis, UniProt C0HJB3)
# T5 construct: purchased Sigma-Aldrich Co
# T5 sequence (C0HJB3 1-981): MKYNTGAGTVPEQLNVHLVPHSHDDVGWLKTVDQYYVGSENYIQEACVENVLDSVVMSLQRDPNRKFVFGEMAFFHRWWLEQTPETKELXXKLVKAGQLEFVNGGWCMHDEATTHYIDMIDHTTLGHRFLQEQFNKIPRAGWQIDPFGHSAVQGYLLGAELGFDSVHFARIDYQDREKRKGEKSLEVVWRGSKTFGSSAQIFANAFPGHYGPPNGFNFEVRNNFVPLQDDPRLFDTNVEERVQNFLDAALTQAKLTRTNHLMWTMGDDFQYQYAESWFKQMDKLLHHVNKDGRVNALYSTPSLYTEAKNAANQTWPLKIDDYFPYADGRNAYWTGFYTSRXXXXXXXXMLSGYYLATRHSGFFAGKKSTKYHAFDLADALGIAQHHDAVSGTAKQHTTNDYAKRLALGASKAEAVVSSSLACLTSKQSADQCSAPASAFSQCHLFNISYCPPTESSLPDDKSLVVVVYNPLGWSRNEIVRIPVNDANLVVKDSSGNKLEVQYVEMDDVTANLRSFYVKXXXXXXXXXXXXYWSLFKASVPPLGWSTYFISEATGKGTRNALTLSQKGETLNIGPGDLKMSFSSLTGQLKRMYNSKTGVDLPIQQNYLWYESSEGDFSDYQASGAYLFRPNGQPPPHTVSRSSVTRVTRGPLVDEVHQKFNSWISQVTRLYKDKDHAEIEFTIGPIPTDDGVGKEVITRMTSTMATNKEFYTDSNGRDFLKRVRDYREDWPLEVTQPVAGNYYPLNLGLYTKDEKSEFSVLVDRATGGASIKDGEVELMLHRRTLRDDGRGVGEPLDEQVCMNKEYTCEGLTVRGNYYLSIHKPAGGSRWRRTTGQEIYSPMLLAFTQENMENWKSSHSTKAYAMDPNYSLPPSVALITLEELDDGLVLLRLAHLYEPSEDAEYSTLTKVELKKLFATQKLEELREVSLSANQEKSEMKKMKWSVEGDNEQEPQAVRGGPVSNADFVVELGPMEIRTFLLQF
# From the text: as §1, §2
# [10] = biological target: T6, β-D-glucuronidase (E. coli) (Escherichia coli, UniProt P05804)
# T6 construct: purchased Sigma-Aldrich Co
# T6 sequence (P05804 whole entry): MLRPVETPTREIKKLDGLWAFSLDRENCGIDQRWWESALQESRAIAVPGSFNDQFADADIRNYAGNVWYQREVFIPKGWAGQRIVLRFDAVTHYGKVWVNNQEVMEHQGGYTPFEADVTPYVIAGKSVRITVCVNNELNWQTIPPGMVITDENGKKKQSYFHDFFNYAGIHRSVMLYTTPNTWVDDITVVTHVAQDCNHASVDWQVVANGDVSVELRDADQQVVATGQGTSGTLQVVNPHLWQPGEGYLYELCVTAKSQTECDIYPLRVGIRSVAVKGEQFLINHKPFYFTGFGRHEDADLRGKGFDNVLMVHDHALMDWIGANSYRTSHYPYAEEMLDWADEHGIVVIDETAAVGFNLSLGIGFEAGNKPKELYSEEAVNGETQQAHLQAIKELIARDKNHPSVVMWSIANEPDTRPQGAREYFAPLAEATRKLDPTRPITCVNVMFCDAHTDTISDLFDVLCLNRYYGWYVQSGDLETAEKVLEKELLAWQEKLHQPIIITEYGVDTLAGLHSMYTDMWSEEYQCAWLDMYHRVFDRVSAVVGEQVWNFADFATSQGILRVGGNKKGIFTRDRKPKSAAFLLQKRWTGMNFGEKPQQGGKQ
# From the text: as §1, §2
# T1 sequence (P53341 whole entry): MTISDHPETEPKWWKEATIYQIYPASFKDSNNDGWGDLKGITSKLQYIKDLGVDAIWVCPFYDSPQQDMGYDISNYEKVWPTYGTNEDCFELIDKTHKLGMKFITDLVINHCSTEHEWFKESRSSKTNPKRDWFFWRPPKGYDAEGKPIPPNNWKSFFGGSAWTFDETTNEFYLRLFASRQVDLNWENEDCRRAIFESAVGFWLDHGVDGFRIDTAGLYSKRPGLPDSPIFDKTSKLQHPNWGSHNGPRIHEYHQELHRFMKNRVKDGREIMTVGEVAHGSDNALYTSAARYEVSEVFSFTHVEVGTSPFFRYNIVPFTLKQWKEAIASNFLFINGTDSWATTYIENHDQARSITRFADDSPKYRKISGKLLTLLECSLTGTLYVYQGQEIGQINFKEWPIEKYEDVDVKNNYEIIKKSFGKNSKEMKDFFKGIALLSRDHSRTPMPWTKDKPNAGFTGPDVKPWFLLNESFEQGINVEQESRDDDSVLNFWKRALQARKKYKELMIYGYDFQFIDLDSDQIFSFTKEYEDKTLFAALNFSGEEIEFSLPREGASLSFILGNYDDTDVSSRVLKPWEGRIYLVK
Compound,inhibition at 100 µM [1] [%],"α-D-Glucosidase Rat Intestinal Maltase, inhibition % at 100 μM [2]","α-L-Rhamnosidase P. decumbens, inhibition % at 100 μM [3]",inhibition at 100 µM [4] [%],"β-D-Glucosidase Almond, inhibition % at 100 μM (β-D-glucosidase (almond))","β-D-Glucosidase Bovine Liver, inhibition % at 100 μM [5]","β-D-Glucuronidase Bovine Liver, inhibition % at 100 μM [6]",inhibition at 100 µM [7] [%],inhibition at 100 µM [8] [%],inhibition at 100 µM [9] [%],inhibition at 100 µM [10] [%],inhibition at 1000 µM [7] [%],inhibition at 1000 µM [8] [%],inhibition at 1000 µM [1] [%],"α-D-Glucosidase Rat Intestinal Maltase, inhibition % at 1000 μM [2]",inhibition at 1000 µM [9] [%],"α-L-Rhamnosidase P. decumbens, inhibition % at 1000 μM [3]","β-D-Glucosidase Almond, inhibition % at 1000 μM (β-D-glucosidase (almond))","β-D-Glucosidase Bovine Liver, inhibition % at 1000 μM [5]","β-D-Glucuronidase Bovine Liver, inhibition % at 1000 μM [6]",further results
"N[C@@H](Cc1ccc(B(O)O)cc1)C(=O)O [BPA, 4-borono-L-phenylalanine, reference compound]",0,^c NI ^d (0%),^c NI ^d (0%),10.9,^c NI ^d (0%),^c NI ^d (0%),^c NI ^d (7.4%),–,–,–,–,–,–,–,–,–,–,–,–,–,–
"CC1(C)O[C@H]2O[C@H]3[C@@H]([C@H]2O1)N(Cc1ccccc1)C[C@H]3O [Compound 3, N-Benzyl-3,6-dideoxy-3,6-imino-1,2-O-isopropylidene-α-D-gulofuranose]",4.7,^c NI ^d (0%),^c NI ^d (0.5%),26.1,^c NI ^d (0%),^c NI ^d (31.9%),^c NI ^d (0%),0,9.5,0.9,2.4,–,–,–,–,–,–,–,–,–,–
"OC1O[C@@H]2[C@H]([C@H]1O)N(Cc1ccccc1)C[C@H]2O (stereo partly drawn) [Compound 4, N-Benzyl-3,6-dideoxy-3,6-imino-D-gulofuranose]",–,–,–,–,–,–,–,–,–,–,–,0.2,1.8,0,^a NI ^b (22.4%),7.5,^a NI ^b (0%),^a NI ^b (27.4%),^a NI ^b (16.4%),^a NI ^b (7.0%),inhibition at 1000 µM [10]: 7%
"OC[C@H](O)[C@@H]1[C@H](O)[C@H](O)CN1Cc1ccccc1 [Compound 5, N-Benzyl-1,4-dideoxy-1,4-imino-L-gulitol]",2.9,^c NI ^d (12.9%),^c NI ^d (1.5%),0,^c NI ^d (0%),^c NI ^d (3.3%),^c NI ^d (3.7%),2.1,1.5,4.4,0,–,–,–,–,–,–,–,–,–,–
"N[C@@H](Cc1ccc(B(O)O)cc1)C(=O)O [^10B-BPA, reference compound]",–,^c NI ^d (0%),^c NI ^d (0%),–,^c NI ^d (0%),^c NI ^d (14.2%),^c NI ^d (0%),–,–,–,–,–,–,–,–,–,–,–,–,–,"Amyloglucosidase A. niger, inhibition % at 100 μM ([7]; 100 μM): ^c NI ^d (0%); α-D-Galactosidase Coffee Beans, inhibition % at 100 μM ([8]; 100 μM): ^c NI ^d (1.2%); α-D-Glucosidase Yeast, inhibition % at 100 μM ([1]; 100 μM): ^c NI ^d (0%); α-D-Mannosidase Jack Bean, inhibition % at 100 μM ([9]; 100 μM): ^c NI ^d (0%); β-D-Galactosidase Bovine Liver, inhibition % at 100 μM ([4]; 100 μM): ^c NI ^d (0%); β-D-Glucuronidase E. coli, inhibition % at 100 μM ([10]; 100 μM): ^c NI ^d (2.4%)"
"CC1(C)O[C@H]2O[C@H]3[C@@H]([C@H]2O1)N(Cc1ccc(B2OC(C)(C)C(C)(C)O2)cc1)C[C@H]3O [para 6, N-(4-Methylphenylboronic acid pinacol ester)-3,6-dideoxy-3,6-imino-1,2-O-isopropylidene-α-D-gulofuranose]",3.4,^c NI ^d (0%),^c NI ^d (1.4%),22.3,^c NI ^d (0%),^c NI ^d (13%),^c NI ^d (0%),0,1.6,0,3.2,–,–,–,–,–,–,–,–,–,–
"OB(O)c1ccc(CN2CC(O)C3OC(O)C(O)C32)cc1 [para 7, N-(4-Methylphenylboronic acid)-3,6-dideoxy-3,6-imino-D-gulofuranose]",–,–,–,–,–,–,–,–,–,–,–,2.7,0,0,^a NI ^b (0%),0,^a NI ^b (15.8%),^a NI ^b (43.6%),^a NI ^b (38.8%),^a NI ^b (3.5%),inhibition at 1000 µM [10]: 17.8%
"OC[C@H](O)[C@@H]1[C@H](O)[C@H](O)CN1Cc1ccc(B(O)O)cc1 [para 8, N-(4-Methylphenylboronic acid)-1,4-dideoxy-1,4-imino-L-gulitol]",–,–,–,–,–,–,–,–,–,–,–,3.6,1.4,5.6,^a NI ^b (10.5%),0,^a NI ^b (26.3%),^a NI ^b (28%),^a NI ^b (27.1%),^a NI ^b (6.0%),inhibition at 1000 µM [10]: 22.9%
"borocaptate sodium [BSH, reference compound]",–,–,–,–,–,–,–,–,–,–,–,–,–,–,^a NI ^b (0%),–,^a NI ^b (0.2%),^a NI ^b (0%),^a NI ^b (15%),^a NI ^b (19.6%),"Amyloglucosidase A. niger, inhibition % at 1000 μM ([7]; 1000 μM): ^a NI ^b (0%); α-D-Galactosidase Coffee Beans, inhibition % at 1000 μM ([8]; 1000 μM): ^a NI ^b (12.3%); α-D-Glucosidase Yeast, inhibition % at 1000 μM ([1]; 1000 μM): ^a NI ^b (6.9%); α-D-Mannosidase Jack Bean, inhibition % at 1000 μM ([9]; 1000 μM): ^a NI ^b (7.9%); β-D-Galactosidase Bovine Liver, inhibition % at 1000 μM ([4]; 1000 μM): ^a NI ^b (0%); β-D-Glucuronidase E. coli, inhibition % at 1000 μM ([10]; 1000 μM): ^a NI ^b (6%)"

# From publication PMC12472391, “Borylated Five-Membered Ring Iminosugars: Synthesis, Spectroscopic Analysis, and Biological Evaluation for Glycosidase Inhibition and Anticancer Properties for Application in Boron Neutron Capture Therapy (BNCT)—Part 1” (Pharmaceuticals, 2025)
